Among the test systems are CCRF-CEM; HCT-116; HT-29; IGROV-1; K562; MOLT-4; NCI-H226; RPMI-8226; SF-268; SK-MEL-28; SK-MEL-2; A549; EKVX; SNB-19.
Common to all, as to assay: growth of human tumour cells (NCI), 48 h

Each structure is given as a SMILES string.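 Dose response: 5 concentrations. Exposure: 48 h. Format: 96-well plates. Endpoint: linear interpolation; highest concentration if not reached. Abbreviation: GI50, concentration required for 50% inhibition of growth.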 Calls of active or inactive are those of the source. No stated cut-off is given here; in the data, active = GI50 up to about 1.1 µM and inactive = higher.

`C=CC(=O)N1C/C(=C\c2ccc(Cl)c(Cl)c2)C(=O)/C(=C/c2ccc(Cl)c(Cl)c2)C1`: the GI50 is 0.0228 µM (active) in the test on CCRF-CEM; 0.0612 µM (active) in the test on HCT-116; 0.0673 µM (active) in the test with HT-29; 0.124 µM (active) in the test with IGROV-1; 0.0404 µM (active) with K562; 0.103 µM (active) in the test with MOLT-4. Moreover, the GI50 in the test on NCI-H226 is 1.25 µM (inactive); in the test on RPMI-8226, 0.0246 µM (active); in the test with SF-268, 0.104 µM (active); with SK-MEL-28 it was 0.458 µM (active); with SK-MEL-2, 0.42 µM (active).
With `CC(C)(C)C(C#N)(C#N)c1ccc(C(C#N)(C#N)C(C)(C)C)nn1`, the GI50 with A549, in the test on CCRF-CEM, in the test on EKVX, with HT-29, with IGROV-1 and with K562 was > 100 µM (inactive) in each case. In addition, the GI50 with MOLT-4 is > 100 µM (inactive); in the test on RPMI-8226, > 100 µM (inactive); in the test on SF-268 it was 86.7 µM (inactive); with SK-MEL-28 it was > 100 µM (inactive); in the test on SK-MEL-2, > 100 µM (inactive); with SNB-19, 63.4 µM (inactive).
In the case of `Cc1ccc(C(c2c(O)c3ccccc3n(-c3ccccc3)c2=O)c2c(O)c3ccccc3n(-c3ccccc3)c2=O)cc1`, the GI50 in the test on A549 is > 100 µM (inactive); in the test with CCRF-CEM, 7.06 µM (inactive); in the test on EKVX, 35.3 µM (inactive); with HCT-116, > 100 µM (inactive); in the test with K562 it was > 100 µM (inactive); with MOLT-4, 24.2 µM (inactive). Moreover, the GI50 was > 100 µM (inactive) in the test with NCI-H226; > 100 µM (inactive) with RPMI-8226; 82.2 µM (inactive) in the test on SF-268; > 100 µM (inactive) in the test with SK-MEL-28; > 100 µM (inactive) in the test with SK-MEL-2; > 100 µM (inactive) with SNB-19.
With `Cn1c(=O)c2/c(n(C)c1=O)=N\C=c1\c(=O)n(C)c(=O)n(C)\c1=N\C=2`, the GI50 with A549, with CCRF-CEM, in the test on EKVX, with HCT-116, with HT-29 and in the test with IGROV-1 was > 100 µM (inactive) each time. The GI50 in the test on K562, in the test on MOLT-4, in the test on SF-268, with SK-MEL-28, in the test with SK-MEL-2 and with SNB-19 was > 100 µM (inactive) each time.
For `CCOP(=O)(OCC)C(C(=O)OC)C(=O)C(=O)Nc1cccc([N+](=O)[O-])c1` (stereo not given), the GI50 in the test on A549, in the test with CCRF-CEM, with EKVX, in the test on HCT-116, in the test with HT-29 and with IGROV-1 was > 100 µM (inactive) throughout. Besides, the GI50 in the test with K562, with MOLT-4, with NCI-H226, in the test on SF-268, in the test with SK-MEL-28 and in the test with SK-MEL-2 was > 100 µM (inactive) in each case. Also, the GI50 with SNB-19 was > 100 µM (inactive).
Regarding `CN(C(=O)c1ccc(Cl)cc1)C(=S)N1CCN(c2ccccn2)CC1`, the GI50 in the test on A549, with CCRF-CEM, in the test on HCT-116, in the test with HT-29, in the test on IGROV-1 and with K562 was > 100 µM (inactive) each time. The GI50 was > 100 µM (inactive) with MOLT-4; 37.2 µM (inactive) with NCI-H226; > 100 µM (inactive) with RPMI-8226; > 100 µM (inactive) in the test on SF-268; > 100 µM (inactive) in the test with SK-MEL-28; > 100 µM (inactive) with SK-MEL-2. In the test with SNB-19, the GI50 is > 100 µM (inactive).
Take `Nc1ccn(CCNCCn2cnc3nc(N)[nH]c(=O)c32)c(=O)n1`: the GI50 in the test with A549, in the test with EKVX, in the test with HCT-116, in the test on HT-29, in the test with IGROV-1 and with K562 was > 100 µM (inactive) in each case. For the same molecule, the GI50 with NCI-H226, in the test with RPMI-8226, in the test on SF-268, in the test on SK-MEL-28, in the test on SK-MEL-2 and in the test with SNB-19 was > 100 µM (inactive) each time.
Consider `Cc1ccc([N+](=O)[O-])cc1NC(=O)C(=O)Cc1nc2ccc(C(=O)c3ccccc3)cc2nc1O`, for which the GI50 in the test with A549, with CCRF-CEM, in the test on EKVX, in the test with HCT-116, in the test on HT-29 and with IGROV-1 was > 100 µM (inactive) in each case. Moreover, the GI50 with MOLT-4, in the test with NCI-H226, with SK-MEL-28 and in the test with SNB-19 was > 100 µM (inactive) throughout.
On to `O=C(CCc1nnc(S)[nH]1)Nc1cc(Cl)c(Cl)cc1Cl`, for which the GI50 in the test on A549, in the test on CCRF-CEM, with HCT-116, with HT-29, in the test with IGROV-1 and with K562 was > 100 µM (inactive) throughout. The GI50 in the test on MOLT-4, in the test on NCI-H226, with RPMI-8226, with SF-268, with SK-MEL-28 and with SK-MEL-2 was > 100 µM (inactive) in each case. In the test with SNB-19, the GI50 is > 100 µM (inactive).
Regarding `COc1ccc(CNc2nc3c(NC(C)=O)cc(C(F)(F)F)cc3nc2-c2ccccc2)cc1OC`, the GI50 in the test with A549 is 47.9 µM (inactive); in the test on CCRF-CEM it was > 100 µM (inactive); in the test on EKVX it was 35.6 µM (inactive); in the test with HCT-116, 48.4 µM (inactive); with HT-29, > 100 µM (inactive); in the test with IGROV-1, > 100 µM (inactive). Also, the GI50 with K562 is > 100 µM (inactive); in the test with MOLT-4, > 100 µM (inactive); in the test on RPMI-8226, 68.5 µM (inactive); in the test on SF-268, 5.68 µM (inactive); in the test with SK-MEL-28, 19 µM (inactive); in the test with SK-MEL-2, 57.7 µM (inactive). Moreover, in the test with SNB-19, the GI50 was 45.6 µM (inactive).
For the molecule `COC(=O)C1C(/C=C/c2ccoc2)ON2CCC[C@@H]12` (stereo not given in full), the GI50 with A549, with EKVX, in the test on HT-29, in the test with NCI-H226, in the test with SF-268 and in the test on SK-MEL-28 was > 100 µM (inactive) in each case. Besides, the GI50 in the test on SK-MEL-2 and in the test with SNB-19 was > 100 µM (inactive) each time.
In the case of `Cc1ccc(S(=O)OC2C3CC4CC(C3)CC2C4)cc1` (stereo not given), the GI50 in the test on A549, with EKVX, in the test with HCT-116, with HT-29, in the test with IGROV-1 and in the test on K562 was > 100 µM (inactive) throughout. For the same molecule, the GI50 in the test on MOLT-4, in the test with NCI-H226, in the test on RPMI-8226, in the test on SF-268, with SK-MEL-28 and in the test with SNB-19 was > 100 µM (inactive) in each case.
Regarding `COc1ccc2c(c1OC)C(=O)c1cnccc1C2=O`, the GI50 with A549, in the test with CCRF-CEM, in the test on EKVX, with HCT-116, in the test on HT-29 and in the test on IGROV-1 was > 100 µM (inactive) in each case. The GI50 with K562, with MOLT-4, with NCI-H226, in the test with RPMI-8226, in the test on SK-MEL-28 and with SK-MEL-2 was > 100 µM (inactive) each time. For the same molecule, in the test with SNB-19, the GI50 was > 100 µM (inactive).
With `CCCCN(CCCC)CC(C(=O)Nc1ccc([N+](=O)[O-])cc1[N+](=O)[O-])/C(C)=N\NC(=O)c1ccncc1` (stereo not given), the GI50 in the test with A549, in the test with CCRF-CEM, in the test with EKVX, with IGROV-1, in the test on K562 and in the test on MOLT-4 was > 100 µM (inactive) throughout. In addition, the GI50 in the test with RPMI-8226, in the test on SF-268, in the test on SK-MEL-28, in the test with SK-MEL-2 and with SNB-19 was > 100 µM (inactive) each time.
For the molecule `COC(=O)C1=Cc2c(cc(OC)c(OC)c2OC)[C@H](c2ccc(OC)c(OC)c2OC)C1C(=O)OC` (stereo not given in full), the GI50 was > 100 µM (inactive) with A549; > 100 µM (inactive) in the test with CCRF-CEM; > 100 µM (inactive) with EKVX; 92.3 µM (inactive) in the test on HCT-116; 36.1 µM (inactive) with HT-29; > 100 µM (inactive) in the test on IGROV-1. In addition, the GI50 in the test on K562 is > 100 µM (inactive); with MOLT-4, 83 µM (inactive); in the test with NCI-H226, > 100 µM (inactive); in the test on RPMI-8226 it was 89.5 µM (inactive); in the test with SF-268, > 100 µM (inactive); in the test on SK-MEL-28, > 100 µM (inactive). For the same molecule, the GI50 in the test on SNB-19 is > 100 µM (inactive).
In the case of `CN(C)c1ccc(C(=C2C=CC(=[N+](C)C)C=C2)c2ccc(N(C)C)cc2)cc1` [GENTIAN VIOLET], the GI50 with A549 is 0.0395 µM (active); with CCRF-CEM, 0.102 µM (active); with EKVX, 0.368 µM (active); with IGROV-1 it was 0.21 µM (active); in the test on K562 it was 0.0327 µM (active); in the test with MOLT-4, 0.144 µM (active). Besides, the GI50 is 0.179 µM (active) with NCI-H226; 0.0237 µM (active) in the test on RPMI-8226; 0.133 µM (active) with SF-268; 0.53 µM (active) in the test on SK-MEL-28; 0.207 µM (active) with SK-MEL-2; 0.347 µM (active) in the test with SNB-19.

The values are drawn from ChEMBL document CHEMBL1201862, “PubChem BioAssay data set” (2004).
